Experiments:
Mus musculus [1] = test: Anticonvulsive activity in pentylenetetrazole-induced seizure albino mouse model assessed as latecy time at 100 mg/kg, ig administered 30 mins prior to pentylenetetrazole challenge and mesured for 60 mins (reference value: 5.79 +/- 0.58 min); type: functional
Mus musculus [2] = test: Anticonvulsive activity in pentylenetetrazole-induced seizure albino mouse model assessed as number of clonic and tonic convulsion at 100 mg/kg, ig administered 30 mins prior to pentylenetetrazole challenge and mesured per animal for 60 mins (reference value: 3.58 +/- 0.42); type: functional
Mus musculus [3] = test: Anticonvulsive activity in pentylenetetrazole-induced seizure albino mouse model assessed as proportion of animals with clonic convulsion at 100 mg/kg, ig administered 30 mins prior to pentylenetetrazole challenge and mesured for 60 mins (reference value: 100 %); type: functional
Mus musculus [4] = test: Anticonvulsive activity in pentylenetetrazole-induced seizure albino mouse model assessed as proportion of animals with tonic convulsion at 100 mg/kg, ig administered 30 mins prior to pentylenetetrazole challenge and mesured for 60 mins (reference value: 100%); type: functional
Mus musculus [5] = test: Anticonvulsive activity in albino mouse assessed as protection against pentylenetetrazole-induced seizure by measuring severity of convulsion at 100 mg/kg, ig administered 30 mins prior to pentylenetetrazole challenge and mesured for 60 mins (reference value: 5.83 +/- 0.17); type: functional
Mus musculus [6] = test: Anticonvulsive activity in pentylenetetrazole-induced seizure albino mouse model assessed as duration time of convulsion period at 100 mg/kg, ig administered 30 mins prior to pentylenetetrazole challenge and mesured for 60 mins (reference value: 12 +/- 1.34 min); type: functional
Mus musculus [7] = test: Anticonvulsive activity in pentylenetetrazole-induced seizure albino mouse model assessed as lifetime of animal to death at 100 mg/kg, ig administered 30 mins prior to pentylenetetrazole challenge and mesured for 60 mins (reference value: 17.45 +/- 1.85 min); type: functional
Mus musculus [8] = test: Anticonvulsive activity in pentylenetetrazole-induced seizure albino mouse model assessed as lethality at 100 mg/kg, ig administered 30 mins prior to pentylenetetrazole challenge and mesured for 60 mins (reference value: 91.7%); type: functional
[9] = Toxicity in albino mouse assessed as motor coordination impairment by measuring animal fall-off from rod before 1 min at 100 mg/kg, ig administered 30 mins prior to test by rotarod test (reference value: 17%); type: organism-based; conditions: in vivo, po
[10] = Toxicity in albino mouse assessed as motor coordination impairment by measuring animal fall-off from rod before 2 mins at 100 mg/kg, ig administered 30 mins prior to test by rotarod test (reference value: 33%); type: organism-based; conditions: in vivo, po
[11] = Toxicity in albino mouse assessed as motor coordination impairment by measuring animal fall-off from rod before 3 mins at 100 mg/kg, ig administered 30 mins prior to test by rotarod test (reference value: 33%); type: organism-based; conditions: in vivo, po, 0.05 h
[12] = Toxicity in albino mouse assessed as motor coordination impairment by measuring animal fall-off from rod before 5 mins at 100 mg/kg, ig administered 30 mins prior to test by rotarod test (reference value: 50%); type: organism-based; conditions: in vivo, po
Mus musculus [13] = test: Anticonvulsive activity in pentylenetetrazole-induced seizure albino mouse model assessed as latency time at 300 mg/kg, ig administered 30 mins prior to pentylenetetrazole challenge and mesured for 60 mins (reference value: 5.79 +/- 0.58 min); type: functional
Mus musculus [14] = test: Anticonvulsive activity in pentylenetetrazole-induced seizure albino mouse model assessed as proportion of animals with clonic convulsion at 300 mg/kg, ig administered 30 mins prior to pentylenetetrazole challenge and mesured for 60 mins (reference value: 100 %); type: functional
Mus musculus [15] = test: Anticonvulsive activity in pentylenetetrazole-induced seizure albino mouse model assessed as proportion of animals with tonic convulsion at 300 mg/kg, ig administered 30 mins prior to pentylenetetrazole challenge and mesured for 60 mins (reference value: 100%); type: functional
Mus musculus [16] = test: Anticonvulsive activity in albino mouse assessed as protection against pentylenetetrazole-induced seizure by measuring severity of convulsion at 300 mg/kg, ig administered 30 mins prior to pentylenetetrazole challenge and mesured for 60 mins (reference value: 5.83 +/- 0.17); type: functional
Mus musculus [17] = test: Anticonvulsive activity in pentylenetetrazole-induced seizure albino mouse model assessed as duration time of convulsion period at 300 mg/kg, ig administered 30 mins prior to pentylenetetrazole challenge and mesured for 60 mins (reference value: 12 +/- 1.34 min); type: functional
Mus musculus [18] = test: Anticonvulsive activity in pentylenetetrazole-induced seizure albino mouse model assessed as lifetime of animal to death at 300 mg/kg, ig administered 30 mins prior to pentylenetetrazole challenge and mesured for 60 mins (reference value: 17.45 +/- 1.85 min); type: functional
Mus musculus [19] = test: Anticonvulsive activity in pentylenetetrazole-induced seizure albino mouse model assessed as lethality at 300 mg/kg, ig administered 30 mins prior to pentylenetetrazole challenge and mesured for 60 mins (reference value: 91.7%); type: functional
[20] = Toxicity in albino mouse assessed as motor coordination impairment by measuring animal fall-off from rod before 1 min at 300 mg/kg, ig administered 30 mins prior to test by rotarod test (reference value: 17%); type: organism-based; conditions: in vivo, po
[21] = Toxicity in albino mouse assessed as motor coordination impairment by measuring animal fall-off from rod before 2 mins at 300 mg/kg, ig administered 30 mins prior to test by rotarod test (reference value: 33%); type: organism-based; conditions: in vivo, po
[22] = Toxicity in albino mouse assessed as motor coordination impairment by measuring animal fall-off from rod before 3 mins at 300 mg/kg, ig administered 30 mins prior to test by rotarod test (reference value: 33%); type: organism-based; conditions: in vivo, po, 0.05 h
[23] = Toxicity in albino mouse assessed as motor coordination impairment by measuring animal fall-off from rod before 5 mins at 300 mg/kg, ig administered 30 mins prior to test by rotarod test (reference value: 50%); type: organism-based; conditions: in vivo, po
Mus musculus [24] = test: Anticonvulsive activity in pentylenetetrazole-induced seizure albino mouse model assessed as number of clonic and tonic convulsion at 300 mg/kg, ig administered 30 mins prior to pentylenetetrazole challenge and mesured per animal for 60 mins (reference value: 3.58 +/- 0.42); type: functional
Mus musculus [25] = test: Anticonvulsive activity in pentylenetetrazole-induced seizure albino mouse model assessed as decrease in time of death at 100 mg/kg, ig administered 30 mins prior to pentylenetetrazole challenge and mesured for 60 mins relative to control; type: functional

| SMILES | Time (Mus musculus [1]) [min] | Activity (Mus musculus [2]) | Activity (Mus musculus [3]) [%] | Activity (Mus musculus [4]) [%] | Activity (Mus musculus [5]) | Time (Mus musculus [6]) [min] | Time (Mus musculus [7]) [min] | Activity (Mus musculus [8]) [%] | Activity [9] [%] | Activity [10] [%] | Activity [11] [%] | Activity [12] [%] | further results |
| --- | --- | --- | --- | --- | --- | --- | --- | --- | --- | --- | --- | --- | --- |
| O=C(Cn1c(=O)[nH]c2ccccc2c1=O)NC1CCCCC1 | 3.8 | 3.2 | 100 | 100 | 5.6 | 13.11 | 11.53 | 80 | 17 | 33 | 50 | 50 |  |
| O=C(Cn1c(=O)[nH]c2ccccc2c1=O)Nc1ccccc1 | 10.57 | 1.22 | 100 | 55.5 | 4.22 | 1.24 | 7.14 | 33.3 | 17 | 33 | 50 | 67 |  |
| CCCNC(=O)Cn1c(=O)[nH]c2ccccc2c1=O | 7.5 | 1.4 | 100 | 100 | 5 | 2.2 | 6.89 | 40 | 33 | 50 | 50 | 50 |  |
| CCCC(CCC)C(=O)[O-].[Na+] [VALPROATE SODIUM] |  |  |  |  |  |  |  |  |  |  |  |  | Time (Mus musculus [13]): 26.65 min; Activity (Mus musculus [14]): 66.7%; Activity (Mus musculus [15]): 50%; Activity (Mus musculus [16]): 2.83; Time (Mus musculus [17]): 7.64 min; Time (Mus musculus [18]): 20.9 min; Activity (Mus musculus [19]): 16.7%; Activity [20]: 50%; Activity [21]: 67%; Activity [22]: 83%; Activity [23]: 100%; Activity (Mus musculus [24]): 2 |
| C=CCNC(=O)Cn1c(=O)[nH]c2ccccc2c1=O | 6.6 | 2.2 | 100 | 80 | 5 | 9.8 | 16.95 | 60 | 33 | 50 | 50 | 67 |  |
| O=C(Cn1c(=O)[nH]c2ccccc2c1=O)NCc1ccc(Cl)cc1 | 4.82 | 2 | 100 | 100 | 6 | 4.54 | 9.36 |  | 50 | 67 | 67 | 83 | fold change (FC) (Mus musculus [25]): 1.9 |

— ChEMBL document CHEMBL4359850, “Synthesis, in vivo and in silico anticonvulsant activity studies of new derivatives of 2-(2,4-dioxo-1,4-dihydroquinazolin-3(2H)-yl)acetamide” (Eur J Med Chem, 2019)
